The results in this text go back to US8877715B2, “Cytotoxic conjugates having neuropeptide Y receptor binding compound” (priority 2009, dated 2014).

The target of one test is T1, NPY-Y2 receptor (Homo sapiens, UniProt P49146).
T1 construct: the appropriate cells (SK-N-MC for NPY-Y1; host or cells: SK-N-BE2 human neuroblastoma cells (membrane homogenate)
T1 sequence (P49146 1-381): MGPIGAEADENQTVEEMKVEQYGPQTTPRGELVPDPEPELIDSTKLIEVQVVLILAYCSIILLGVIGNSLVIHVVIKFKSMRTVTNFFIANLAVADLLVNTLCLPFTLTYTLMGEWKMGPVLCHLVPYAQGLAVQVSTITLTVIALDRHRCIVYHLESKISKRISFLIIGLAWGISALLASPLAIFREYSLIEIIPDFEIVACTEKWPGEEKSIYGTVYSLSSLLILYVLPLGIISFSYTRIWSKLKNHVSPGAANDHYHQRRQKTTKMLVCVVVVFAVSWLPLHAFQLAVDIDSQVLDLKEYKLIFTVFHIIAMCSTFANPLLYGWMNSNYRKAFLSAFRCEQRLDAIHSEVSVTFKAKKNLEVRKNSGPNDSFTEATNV
Description: In vitro radioligand NPY-Y2 receptor binding assay ([125I]PYY, SK-N-BE2 cell membranes). The note with it: [125I]PYY displacement. As to the method: In Vitro Radioligand NPY-Y1 and NPY-Y2 Receptor Binding Assays
Human neuroblastoma cell lines, SK-N-MC and SK-N-BE2 (American Type Culture Collection, Rockville, Md., USA), expressing the NPY-Y1 and NPY-Y2 receptors, respectfully, were cultured in EMEM containing 10% fetal calf serum and 5% chicken embryo extract, maintained at 37° C. in a humidified atmosphere of and 95% air and 5% CO2.
For the in vitro NPY-Y1 and NPY-Y2 radioligand binding assays, the appropriate cells (SK-N-MC for NPY-Y1; SK-N-BE2 for NPY-Y2) were harvested and then homogenized in 20 ml of ice-cold 50 mM Tris-HCl with a Brinkman Polytron (Westbury, N.Y., USA) (setting 6, 15 sec). The homogenates were washed twice by centrifugation (39,000 g/10 min), and the final pellets were resuspended in 50 mM Tris-HCl, containing 2.5 mM MgCl2, 0.1 mg/ml bacitracin (Sigma Chemical, St. Louis, Mo., USA), and 0.1% BSA.

Test [1] has as its system Human MCF-7 breast carcinoma cells. Description: In vivo growth assay, MCF-7 xenograft (Study A and Study B). The conditions noted are these: Study B; for TGI: Day 15. Set-up: species or system nude mice. As to the method:
Once-weekly treatments were administered for three weeks by tail vein injection except in cases where poor drug solubility or tail necrosis necessitated intraperitoneal injections. […] Example 93 was evaluated in Study B at 55.45 mg/kg, 110.9 mg/kg and 221.8 mg/kg. Antitumor activity was assessed by tumor growth delay (“TGD”) defined as the difference in median time to endpoint tumor size in a treatment group compared to the control group, and by tumor growth inhibition (“TGI”) defined as the difference between median tumor volumes of the treatment and control groups on a study day providing a balance between measurable group responses and large group sizes. Toxicity was evaluated by body weight measurements and clinical observations.
Female nude mice (nu/nu, Harlan) were 10-11 weeks old and had body weight ranges of
The animals were fed ad libitum water (reverse osmosis, 1 ppm Cl) and NIH 31 Modified and Irradiated Lab Diet® consisting of 18.0% crude protein, 5.0% crude fat, and 5.0% crude fiber. The mice were housed on irradiated ALPHA-Dri® Bed-o′ Cobs® Laboratory Animal Bedding in static microisolators on a 12-hour light cycle at 21-22° C.
Human MCF-7 breast carcinoma cells were maintained in RPMI 1640 medium containing 100 units/mL penicillin G sodium, 100 μg/mL streptomycin sulfate, and 25 μg/mL gentamicin. The medium was supplemented with 10% heat-inactivated fetal bovine serum and 2 mM glutamine. Additional buffering was provided with 10 mM HEPES and 0.075% sodium bicarbonate. The tumor cells were cultured in tissue culture flasks in a humidified incubator at 37° C. in an atmosphere of 95% air and 5% CO2.
Three to seven days prior to cell injection, a pellet containing 17-β-estradiol (0.36 mg, 60-day release, Innovative Research of America) was implanted subcutaneously between the scapulae of each mouse.
The MCF-7 tumor cells used for implantation were harvested during log phase growth and resuspended in phosphate-buffered saline at 5×10^7 cells/mL. […] Tumors were monitored twice weekly and then daily as their volumes approached 80-120 mm^3. […] Thus, a separate study (“Study B”) was set up comprising six groups (n=10) of animals. In this study, 17 days elapsed between cell implantation and group assignment. […] Tumor size, in mm^3, was calculated from:
[formula] where w=width and l=length in mm of the MCF-7 tumor. Tumor weight may be estimated with the assumption that 1 mg is equivalent to 1 mm^3 of tumor volume.
Example 93 dosing solutions were prepared fresh in 0.1N acetic acid for each day of treatment.
Camptothecin (Lot No. 034K3648, Sigma) stock solutions were made from 60% DMA and 40% Tween 80 and stored at room temperature during the study. Dosing solutions were prepared fresh on each day of dosing by diluting the stocks 1:20 in saline.
The treatment plans are summarized in Table 3A for Study A and Table 3B for Study B.
All treatments and vehicles were given once-weekly for three doses (“qwk×3”). Group 1 mice received no gavage and no injections, and served as a control for tumor progression and estrogen toxicity. Group 2 animals received vehicle.
Each treatment dose was administered in a volume of 0.2 mL per 20 g of body weight, and was scaled to the body weight of the animal.
Median tumor growth curves of FIGS. 1-3 show median tumor volumes as a function of time. When an animal exited the study due to tumor size, the final tumor volume recorded for the animal was included with the data used to calculate the group median tumor volume at subsequent time points. Curves were truncated after 50% of animals in a group had exited the study.

In turn, “[Camptothecin-rvD/L-Asp-Suc-Tyr^1, Nle^17, A6c^31, 4Hyp^34]hNPY(1-36)-NH2 [93/93A]” returned a Ki in the test with NPY-Y2 receptor of more than 1000 nM.

Turning to “[camptothecin-rvD-Asp-Suc-Tyr^1, Nle^17, A6c^31, 4Hyp^34]hNPY(1-36)-NH2 [Example 93]”, in test [1], the “tumor growth delay (TGD)” value is “TGD analysis did not distinguish responses to Example 93 from tumor growth in the untreated control”. Further, the TGI in test [1] (110.9 mg/kg) is 71%; in test [1] (221.8 mg/kg) it was 77%. For the same substance, the mean tumor volume was 112.9 mm^3 in test [1] (G 4: 55.45 mg/kg qwk x 3, D 1); 206.3 mm^3 in test [1] (G 4: 55.45 mg/kg qwk x 3, D 4); 227.6 mm^3 in test [1] (G 4: 55.45 mg/kg qwk x 3, D 8); 236.1 mm^3 in test [1] (G 4: 55.45 mg/kg qwk x 3, D 12); 323.1 mm^3 in test [1] (G 4: 55.45 mg/kg qwk x 3, D 15); 348.4 mm^3 in test [1] (G 4: 55.45 mg/kg qwk x 3, D 19). Also, the mean tumor volume is 343.3 mm^3 in test [1] (G 4: 55.45 mg/kg qwk x 3, D 22); 366.9 mm^3 in test [1] (G 4: 55.45 mg/kg qwk x 3, D 26); 426.8 mm^3 in test [1] (G 4: 55.45 mg/kg qwk x 3, D 29); 524.5 mm^3 in test [1] (G 4: 55.45 mg/kg qwk x 3, D 33); 621.9 mm^3 in test [1] (G 4: 55.45 mg/kg qwk x 3, D 36); 452.8 mm^3 in test [1] (G 4: 55.45 mg/kg qwk x 3, D 40). Further, the mean tumor volume in test [1] (G 5: 110.9 mg/kg qwk x 3, D 1) came to 112.8 mm^3; in test [1] (G 5: 110.9 mg/kg qwk x 3, D 4) it was 217.3 mm^3; in test [1] (G 5: 110.9 mg/kg qwk x 3, D 8) it was 213 mm^3; in test [1] (G 5: 110.9 mg/kg qwk x 3, D 12), 186.6 mm^3; in test [1] (G 5: 110.9 mg/kg qwk x 3, D 15), 242.5 mm^3; in test [1] (G 5: 110.9 mg/kg qwk x 3, D 19), 212.6 mm^3. Besides, the mean tumor volume in test [1] (G 5: 110.9 mg/kg qwk x 3, D 22) came out at 207.7 mm^3; in test [1] (G 5: 110.9 mg/kg qwk x 3, D 26), 225.5 mm^3; in test [1] (G 5: 110.9 mg/kg qwk x 3, D 29) it was 308.7 mm^3; in test [1] (G 5: 110.9 mg/kg qwk x 3, D 33) it was 112.3 mm^3; in test [1] (G 5: 110.9 mg/kg qwk x 3, D 36), 141.1 mm^3; in test [1] (G 5: 110.9 mg/kg qwk x 3, D 40), 229.5 mm^3. The mean tumor volume in test [1] (G 6: 221.8 mg/kg qwk x 3, D 1) was determined as 112.7 mm^3; in test [1] (G 6: 221.8 mg/kg qwk x 3, D 4) it was 197.9 mm^3; in test [1] (G 6: 221.8 mg/kg qwk x 3, D 8), 170.3 mm^3; in test [1] (G 6: 221.8 mg/kg qwk x 3, D 12), 108 mm^3; in test [1] (G 6: 221.8 mg/kg qwk x 3, D 15), 122.8 mm^3; in test [1] (G 6: 221.8 mg/kg qwk x 3, D 19), 66.6 mm^3. Further, the mean tumor volume is reported as 66 mm^3 in test [1] (G 6: 221.8 mg/kg qwk x 3, D 22); 80.4 mm^3 in test [1] (G 6: 221.8 mg/kg qwk x 3, D 26); 90.1 mm^3 in test [1] (G 6: 221.8 mg/kg qwk x 3, D 29); 109.6 mm^3 in test [1] (G 6: 221.8 mg/kg qwk x 3, D 33); 123.8 mm^3 in test [1] (G 6: 221.8 mg/kg qwk x 3, D 36); 233.2 mm^3 in test [1] (G 6: 221.8 mg/kg qwk x 3, D 40). Besides, in test [1] (all dose levels), the tumor growth curves result is on record as “clear reduction in tumor growth at all dose levels”.

Turning to “[camptothecin-rvD/Lasp-Suc-Tyr^1, Nle^17, 4Hyp^34]hNPY(1-36)-NH2 [Example 92/92A]”, in the test with NPY-Y2 receptor, the Ki was more than 1000 nM.
